Activity calls are given as the source filed them. The rule behind the calls is not given here.
Columns and labels:
Assay type in all cases: nucleic-acid assay
Quadruplex DNA [1] = assay: Binding affinity to human Tel23 G4 quadruplex DNA assessed as change in enthalpy at 298.15 K by isothermal titration calorimetric analysis
Quadruplex DNA [2] = assay: Binding affinity to human Tel23 G4 quadruplex DNA assessed as increase in fluorescence intensity at 1 uM by spectrofluorimetric titration analysis
Quadruplex DNA [3] = assay: Binding affinity to human Tel23 G4 quadruplex DNA assessed as quadruplex DNA stabilization by measuring increase in melting temperature at compound:quadruplex DNA ratio of 1:1 by thermal melting studies
Quadruplex DNA [4] = assay: Binding affinity to human Tel23 G4 quadruplex DNA assessed as decrease in intensity of positive peaks measured after 5 mins by circular dichroism method
Quadruplex DNA [5] = assay: Binding affinity to human Tel12 G4 quadruplex DNA assessed as change in enthalpy at 298.15 K by isothermal titration calorimetric analysis
Quadruplex DNA [6] = assay: Binding affinity to human Tel12 G4 quadruplex DNA assessed as change in entropy at 298.15 K by isothermal titration calorimetric analysis
Quadruplex DNA [7] = assay: Binding affinity to human Tel23 G4 quadruplex DNA at 298.15 K by isothermal titration calorimetric analysis
Quadruplex DNA [8] = assay: Binding affinity to human Tel12 G4 quadruplex DNA at 298.15 K by isothermal titration calorimetric analysis
Quadruplex DNA [9] = assay: Binding affinity to human Tel23 G4 quadruplex DNA assessed as decrease in absorption maxima at 338 and 413 nm at 3 uM by spectrophotometric titration analysis
Quadruplex DNA [10] = assay: Binding affinity to human Tel12 G4 quadruplex DNA assessed as gibbs free energy change at 298.15 K by isothermal titration calorimetric analysis
Quadruplex DNA [11] = assay: Binding affinity to human Tel12 G4 quadruplex DNA assessed as sharp isosbestic point at 351 and 433 nm at 3 uM by spectrophotometric titration analysis
Quadruplex DNA [12] = assay: Binding affinity to human Tel23 G4 quadruplex DNA assessed as sharp isosbestic point at 350, 375 and 430 nm at 3 uM by spectrophotometric titration analysis
Quadruplex DNA [13] = assay: Binding affinity to human Tel12 G4 quadruplex DNA assessed as decrease in absorption maxima at 338 and 413 nm at 3 uM by spectrophotometric titration analysis
Quadruplex DNA [14] = assay: Binding affinity to human Tel12 G4 quadruplex DNA assessed as decrease in intensity of positive peaks measured after 5 mins by circular dichroism method
Quadruplex DNA [15] = assay: Binding affinity to human Tel23 G4 quadruplex DNA assessed as change in entropy at 298.15 K by isothermal titration calorimetric analysis
Quadruplex DNA [16] = assay: Binding affinity to human Tel12 G4 quadruplex DNA assessed as quadruplex DNA stabilization by measuring increase in melting temperature at compound:quadruplex DNA ratio of 1:1 by thermal melting studies
Quadruplex DNA [17] = assay: Binding affinity to human Tel12 G4 quadruplex DNA assessed as increase in fluorescence intensity at 1 uM by spectrofluorimetric titration analysis
Quadruplex DNA [18] = assay: Binding affinity to human Tel23 G4 quadruplex DNA assessed as gibbs free energy change at 298.15 K by isothermal titration calorimetric analysis

- deltaH (Quadruplex DNA [1]): -8.53 kcal/mol
- Activity (Quadruplex DNA [2]): Active
- deltaTm (Quadruplex DNA [3]): 2 K
- Activity (Quadruplex DNA [4]): Active
- deltaH (Quadruplex DNA [5]): -7.08 kcal/mol
- TdeltaS (Quadruplex DNA [6]): 0.3 kcal/mol
- K (Quadruplex DNA [7]): 8.15 ×10⁴ /M
- K (Quadruplex DNA [8]): 3.16 ×10⁵ /M
- Activity (Quadruplex DNA [9]): Active
- deltaG (Quadruplex DNA [10]): -7.38 kcal/mol
- Activity (Quadruplex DNA [11]): Active
- Activity (Quadruplex DNA [12]): Active
- Activity (Quadruplex DNA [13]): Active
- Activity (Quadruplex DNA [14]): Active
- TdeltaS (Quadruplex DNA [15]): -1.97 kcal/mol
- deltaTm (Quadruplex DNA [16]): 15 K
- Activity (Quadruplex DNA [17]): Active
- deltaG (Quadruplex DNA [18]): -6.55 kcal/mol
Structure (SMILES): COc1ccc2c(CCCc3ccncc3)c3[n+](cc2c1OC)CCc1cc2c(cc1-3)OCO2

Reference: ChEMBL document CHEMBL4613278, “Pyridine Derivative of the Natural Alkaloid Berberine as Human Telomeric G4-DNA Binder: A Solution and Solid-State Study” (ACS Med Chem Lett, 2020)
